Structures can show the parent of a compound that is named as a salt.
How the values were obtained:
Assay type in all cases: cell-based
BaF3 KRAS G12C cells = assay: MTT assay for cell viability in 96 well cell culture plate; details: Mus musculus, 48 h treatment
Description: (§1) FIGS. 4a) and 4b): MTT assay for cell viability in 96 well cell culture plate Cells were treated with Alexandrine dihydrochloride for 48 h and cell viability was evaluated by MTT assay. DMSO-treated cells were set as 1. The results shown are mean±SEM from 3 independent experiments.

[1] = tested on: BaF3 KRAS G12C/Y96D cells; assay: as above; details: Mus musculus, 48 h treatment
Description: as §1

KRAS G12V = KRAS G12V (Homo sapiens, UniProt P01116, G12V); assay: NanoBit assay for RAS activation (LgBiT-RAS / SmBiT-CRAF RBD); details: KRAS G12V with CRAF RBD, 2 h with inhibitor in serum free DMEM
Description: (§2) FIGS. 1a) and 1b): NanoBit assay for RAS activation (KRAS G12V, NRAS G12V, HRAS G12V) N-terminal LgBiT and C-terminal SmBiT construct was purchased from Promega and K, N and HRAS G12V (full length) was cloned with Xho I and Bgl II to LgBit and CRAF Ras binding domain (1-149) was cloned with EcoRI and Bgl II to SmBit. For transfections, 1 μg or 2 μg of (12 well/6 well) plasmids were transfected into cells with 0.5 mM of PEI reagent in 100 μl or 200 μl PBS. One day after transfection, cells were harvested and seeded into 96 well white plates, half area (Greiner). After an additional day the medium was changed to serum free DMEM and the cells were incubated for 2 h with inhibitor. NanoGlo assay was performed according to the manufacturer's instructions. The luminescence was measured using Tecan infinite (Tecan).

NRAS G12V = NRAS G12V (Homo sapiens, UniProt P01111, G12V); assay: as above; details: NRAS G12V with CRAF RBD, 2 h with inhibitor in serum free DMEM
Description: as §2

HRAS G12V = HRAS G12V (Homo sapiens, UniProt P01112, G12V); assay: as above; details: HRAS G12V with CRAF RBD, 2 h with inhibitor in serum free DMEM
Description: as §2

T24 cells = assay: Soft agar colony formation assay, colonies stained with MTT; details: Homo sapiens, T-24; T24, growth in soft agar, MTT absorbance at 570 nm, 3 independent experiments
Description: (§3) Metabolic activity was quantified using Cell Proliferation Kit I (Roche, Basel, Switzerland). Cells were seeded in 96-well cell culture plates, using 5000 cells per well for NCI-H358 cells. After treatment, 10 μl of MTT solution was added and incubated for 2 h in CO2 incubator. Then 100 μl of solubilization buffer was added to each well and incubated overnight in CO2 incubator. Cell viability, assessed by the amount of metabolized MTT, was quantified by measuring absorbance at 570 nm. MTT assay for the growth of different tumor cell lines with RAS mutations in soft agar Alexandrine dihydrochloride. NCI-H358, H358, H2122, ASPC-1, HCT-116, T24 and HT1080 cells were used for the soft agar colony formation assay. After the treatment with Alexandrine dihydrochloride, the colonies were stained with MTT and the value was quantified by measuring absorbance at 570 nm after solubilization. The results represent mean±SSEM from 3 independent experiments.

NCI-H358 cells = assay: as above; details: Homo sapiens; NCI-H358, growth in soft agar, MTT absorbance at 570 nm, 3 independent experiments
Description: as §3

NCI-H2122 cells = assay: as above; details: Homo sapiens; NCI-H2122, growth in soft agar, MTT absorbance at 570 nm, 3 independent experiments
Description: as §3

ASPC1 cells = assay: as above; details: Homo sapiens; ASPC1, growth in soft agar, MTT absorbance at 570 nm, 3 independent experiments
Description: as §3

HCT-116 cells = assay: as above; details: Homo sapiens; HCT-116, growth in soft agar, MTT absorbance at 570 nm, 3 independent experiments
Description: as §3

HT1080 cells = assay: as above; details: Homo sapiens, HT-1080; HT1080, growth in soft agar, MTT absorbance at 570 nm, 3 independent experiments
Description: as §3

SNF96.2 cells = assay: RASOpathie-Model, MTT assay for cell viability in 96 well cell culture plate; details: SNF96.2, 48 h treatment
Description: as §1, with “FIG. 5: RASOpathie-Model of Alexandrine dihydrochloride;” for “FIGS. 4a) and 4b):”

[2] = tested on: KRAS mutants (G12V, G12C, G12D, G12C/Y96D); assay: NanoBiT assay for the RAS GTP-loading in HeLa cells (LgBit-KRAS mutants / SmBit-CRAF-RBD); details: 2 h in serum-free DMEM, normalized to DMSO
Description: FIG. 3: NanoBit assay for RAS activation (G12V, G12C, G12D, G12C/Y96D,)
NanoBiT assay for the RAS GTP-loading was performed in HeLa cells transfected with LgBit-KRAS mutants and SmBit-CRAF-RBD. Cells were treated with Alexandrine dihydrochloride for 2 h in serum-free DMEM. After incubation, the substrate for NanoLuc was added, and the luminescence was measured in a multiplate reader. Data were normalized to cells transfected with the indicated mutant and exposed to DMSO for 2 h. DMSO-treated cells were set as 1. The bars represent mean±SEM from 3 independent experiments.

Sequence of HRAS G12V (P01112 1-186 G12V): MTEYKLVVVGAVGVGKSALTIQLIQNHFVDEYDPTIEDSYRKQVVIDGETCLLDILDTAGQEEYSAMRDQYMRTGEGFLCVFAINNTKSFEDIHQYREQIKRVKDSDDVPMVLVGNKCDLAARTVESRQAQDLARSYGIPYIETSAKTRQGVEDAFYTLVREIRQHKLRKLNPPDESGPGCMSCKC
Sequence of KRAS G12V (P01116 1-186 G12V): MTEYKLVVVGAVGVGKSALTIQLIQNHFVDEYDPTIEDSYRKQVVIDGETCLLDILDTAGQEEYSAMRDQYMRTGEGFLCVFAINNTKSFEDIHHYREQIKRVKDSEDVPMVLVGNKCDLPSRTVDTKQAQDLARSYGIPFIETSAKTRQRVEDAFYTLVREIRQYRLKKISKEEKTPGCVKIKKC
Sequence of NRAS G12V (P01111 1-186 G12V): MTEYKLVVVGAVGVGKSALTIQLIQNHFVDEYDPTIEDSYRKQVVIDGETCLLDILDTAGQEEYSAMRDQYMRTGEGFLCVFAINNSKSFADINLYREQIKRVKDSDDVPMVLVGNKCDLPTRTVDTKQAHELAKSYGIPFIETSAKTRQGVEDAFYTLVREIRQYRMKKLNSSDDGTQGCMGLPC

IC50 (BaF3 KRAS G12C cells): 1170 nM
IC50 [1]: 1540 nM
inhibition of K-RAS activation (NanoBit luminescence) (KRAS G12V): inhibits
inhibition of N-RAS activation (NanoBit luminescence) (NRAS G12V): inhibits
inhibition of H-RAS activation (NanoBit luminescence) (HRAS G12V): inhibits
IC50 (T24 cells): 1700 nM
IC50 (NCI-H358 cells): 1280 nM
IC50 (NCI-H2122 cells): 1610 nM
IC50 (ASPC1 cells): 1760 nM
IC50 (HCT-116 cells): 1910 nM
IC50 (HT1080 cells): 310 nM
SMILES: CCCCC(CC)CNC(=N)NC(=N)NCCCCCCNC(=N)NC(=N)NCC(CC)CCCC (stereo not shown) [Alexandrine dihydrochloride, 1,1′-Hexamethylenebis[5-(2-ethylhex-1-yl)]biguanide dihydrochloride]
IC50 (SNF96.2 cells): 350 nM
inhibition of RAS activation of KRAS mutants (NanoBiT luminescence) [2]: inhibits different RAS-isoforms

From patent publication US20260283986A1, “NOVEL RAS INHIBITORS” (KHR Biotec GmbH, priority 2022, published 2026)
